Holding throughout (assay): growth of human tumour cells (NCI), 48 h
Assay [1] deals with NCI-H522 lung.
Assay [2] deals with K-562 leukemia.
Assay [3] deals with SNB-19 CNS.
For assay [4], the system named is SNB-75 CNS.
Assay [5] relates to HOP-92 NSCLC.
The test system of assay [6] is CCRF-CEM leukemia.
The test system of assay [7] is RPMI-8226 leukemia.
Assay [8] relates to HCC-2998 colon.
In assay [9] the test system is SN12C renal.
Assay [10] relates to OVCAR-3 ovarian.
Assay [11] has as its system A549 NSCLC.
The test system of assay [12] is SW-620 colon.
In assay [13] the test system is IGROV1 ovarian.
In assay [14] the test system is RXF 393 renal.
For assay [15], the system named is HCT-15 colon.
Assay [16] relates to LOX IMVI melanoma.
The test system of assay [17] is 786-0 renal.
Assay [18] has as its system SF-295 CNS.
Assay [19] has as its system UACC-62 melanoma.
Assay [20] deals with A498 renal.

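All cell lines were grown in 96-well plates and treated with compound for 48 hours. TGI marks complete inhibition of growth.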

Take `COc1cccc2c1CCc1cc3c(N)nc(N)nc3nc1-2`: the TGI in assay [1] is 10.8 µM; in assay [2] it was greater than 21.4 µM; in [3], 26.7 µM; in assay [4], 34.9 µM; in [5], 32.6 µM; in assay [6] it was 7.02 µM. Besides, the TGI in assay [7] is greater than 100 µM; in [8], 5.78 µM; in [9], 28.1 µM; in assay [10], 16 µM; in assay [11], 7.69 µM; in assay [12], 25 µM. Moreover, the TGI in assay [13] was 17.2 µM; in assay [14], 26.4 µM; in assay [15], 23.4 µM; in assay [16], 3.34 µM; in assay [17] it was 6.13 µM; in assay [18], 9.91 µM. The figures for the TGI in [19] and in [20] were 16.7 µM and 32.9 µM, respectively.
`CC1CN=C(Nc2ccccc2)S1` (stereo not given): the TGI in [1], in assay [2], in assay [3], in assay [4], in assay [5] and in [6] was greater than 100 µM in each case. The TGI in assay [7], in assay [8], in [9], in assay [10], in assay [11] and in assay [12] was greater than 100 µM in each case. The TGI in [13], in [14], in assay [15], in [16], in [17] and in assay [18] was greater than 100 µM throughout. The TGI in assay [19] and in [20] was greater than 100 µM throughout.
`COc1ccc(N2C(=O)[C@H]3[C@H]4CC(C(C)(C)C)CC[C@H]4c4c(n(C)c5ccccc45)[C@H]3C2=O)cc1` (stereo not given in full): the TGI in assay [1] is greater than 82.4 µM; in [2], greater than 100 µM; in assay [3], greater than 100 µM; in [4] it was greater than 100 µM; in assay [5], greater than 100 µM; in assay [6] it was greater than 100 µM. For the same molecule, the TGI was greater than 100 µM in assay [7]; greater than 56.2 µM in assay [8]; greater than 56.2 µM in assay [9]; greater than 100 µM in [10]; greater than 100 µM in assay [11]; greater than 100 µM in assay [12]. Besides, the TGI was greater than 100 µM in [13]; greater than 100 µM in assay [14]; greater than 56.2 µM in [15]; greater than 100 µM in assay [16]; greater than 100 µM in [17]; greater than 100 µM in assay [18]. Moreover, the TGI in [19] was greater than 100 µM; in assay [20], greater than 46.4 µM.
As for `CC1(C)CCc2c(c(N=Nc3ccc(S(N)(=O)=O)cc3)c3ccccc3c2O)O1`, the TGI in assay [1] is 33.7 µM; in [2] it was greater than 100 µM; in assay [3], 39 µM; in assay [4] it was 16.6 µM; in assay [5], 37.5 µM; in assay [6] it was 24.3 µM. The TGI is greater than 100 µM in assay [7]; 15.9 µM in assay [8]; 23.2 µM in [9]; 32.1 µM in assay [10]; 30.2 µM in [11]; greater than 100 µM in assay [12]. The TGI in [13] worked out at 40.1 µM; in assay [14], 24.6 µM; in assay [15], 43.9 µM; in [16], 21.3 µM; in [17], 23.2 µM; in assay [18], 24 µM. Also, the TGI in [19] was 34.3 µM; in [20], 7.28 µM.
With `C=C1C(=O)O[C@@H]2[C@@H]3O[C@@H](C[C@@H]13)[C@](C)(O)CC/C=C(\C)CCC[C@@H]2C`, the TGI in assay [1] turned out to be 20.1 µM; in assay [2] it was 85.5 µM; in assay [3], 29.8 µM; in assay [4], 26.1 µM; in assay [5] it was 29.3 µM; in [6] it was 34.8 µM. Further, the TGI was found to be 20.6 µM in [7]; 32.7 µM in assay [8]; 25.3 µM in assay [9]; 25.8 µM in assay [10]; 34.3 µM in assay [11]; 38.4 µM in [12]. Also, the TGI was determined as 22.6 µM in assay [13]; 30.1 µM in assay [14]; 33.4 µM in assay [15]; 19.2 µM in assay [16]; 18.9 µM in [17]; 44.7 µM in assay [18]. Moreover, the TGI in assay [19] amounted to 25.4 µM; in assay [20], 26.2 µM.
`COC(=O)[C@]12CC[C@H]3CC[C@H]([C@H]31)[C@H](c1ccccc1)N2`: the TGI in [1] was 37.7 µM; in assay [2], 53.4 µM; in assay [3], 47.3 µM; in assay [4] it was 58.1 µM; in [5], 30.3 µM; in [6], 95.9 µM. The TGI in [7] stood at 47.9 µM; in [8], 26.8 µM; in [9], 29.5 µM; in assay [10], 29.3 µM; in assay [11], 37.3 µM; in assay [12], 53.2 µM. For the same molecule, the TGI in assay [13] was 34.3 µM; in [14] it was 30.9 µM; in assay [15], 38.4 µM; in assay [16], 32.1 µM; in assay [17] it was 29.4 µM; in assay [18], 32.3 µM. For the same molecule, the TGI in [19] turned out to be 29.1 µM; in [20], 31.9 µM.
Take `CCOC(=O)CCC(NC(=O)c1ccc(Oc2nc3ccccc3nc2-c2ccccc2)cc1)C(=O)OCC` (stereo not given): the TGI in assay [1] is 40.2 µM; in assay [2], greater than 100 µM; in assay [3] it was greater than 77 µM; in [4], 26.2 µM; in assay [5], 13.4 µM; in assay [6], greater than 100 µM. Moreover, the TGI is greater than 100 µM in assay [7]; greater than 100 µM in assay [8]; greater than 100 µM in [9]; greater than 64.8 µM in assay [10]; greater than 100 µM in [11]; greater than 100 µM in [12]. The TGI in assay [13] is greater than 100 µM; in [14], greater than 76.2 µM; in assay [15], greater than 100 µM; in assay [16] it was greater than 100 µM; in assay [17], greater than 28.7 µM; in assay [18], greater than 60.7 µM. In addition, the TGI in assay [19] and in assay [20] was greater than 100 µM throughout.

The values above are taken from PubChem BioAssay (NCI).
